Experimental data as given in patent US20250352561A1, “COMPOSITIONS AND METHODS USING TETRAHYDROCANNABINOL AND COMPOSITIONS INCLUDING SAME FOR TREATING INDICATIONS INVOLVING INFLAMMATION” (priority 2023, published 2025).
Structures can show the parent of a compound that is named as a salt. Where two headings read alike, the source gives them in different places.

Assays:
[1] = cited from earlier work
[2] = test system: COVID-19 patients who required supplemental oxygen; test: Retrospective clinical study of dronabinol plus standard of care in hospitalized COVID-19 patients requiring oxygen (Example 1); type: in vivo, human
[3] = cited from earlier work; remark: listed apart in the source
cytokine storm = conditions: cited from earlier work
[4] = fasted, n=34, cited from earlier work
[5] = in vivo; cited from earlier work
[6] = test system: COVID-19-positive patients hospitalized for hypoxia; test: Comparative analysis of dronabinol alone vs dronabinol plus fluvoxamine in COVID-19-positive patients hospitalized for hypoxia (Example 8, Table 6)
Method: From October 2020 through December of 2020 a single infectious disease specialist treated consecutive adult COVID-19-positive patients hospitalized for hypoxia with oral dronabinol in addition to then current standard of care which consisted of ceftriaxone, azithromycin, dexamethasone, remdesivir, subcutaneous heparin, and convalescent plasma in addition to respiratory support per standard ICU protocols. Nine patients received 2.5 mg twice orally daily and 68 patients received 5 mg orally twice daily. A retrospective control group of consecutively treated COVID-19-positive patients hospitalized for hypoxia from June 2020 through August 2020, was treated with the same standard of care.
15, 2021, twelve consecutive un-vaccinated COVID-19-positive patients hospitalized for hypoxia were treated by a single physician. They received current standard of care which consisted of ceftriaxone, azithromycin, dexamethasone, remdesivir, and Eliquis in addition to respiratory support per standard ICU protocols. […] One patient was excluded from analysis due to pre-COVID-19 oxygen dependence, and because they were still in the hospital as of this writing on their twelfth hospital day.

[7] = cited from earlier work; remark: listed apart in the source
serotonin uptake = conditions: in vitro, rats; cited from earlier work
norepinephrine reuptake = conditions: in vitro, rats; cited from earlier work
[8] = human, in vivo; cited from earlier work
[9] = test system: plasma protein, mostly albumin; conditions: concentration range of 20 to 2000 ng/mL, cited from earlier work
[10] = cited from earlier work; for Multiple dose elimination half-life: steady state
[11] = hepatic dysfunction vs healthy subjects, cross study comparison; cited from earlier work
[12] = test system: neuronal uptake of serotonin; conditions: in vitro as well as in vivo; cited from earlier work
histaminergic receptors = conditions: in vitro; cited from earlier work
[13] = test system: alpha adrenergic receptors; conditions: in vitro; cited from earlier work
[14] = test system: beta adrenergic receptors; conditions: in vitro; cited from earlier work
muscarinic receptors = conditions: in vitro; cited from earlier work
dopaminergic receptors = conditions: in vitro; cited from earlier work
[15] = target: sigma-1 non-opioid receptor (Homo sapiens, UniProt Q99720); conditions: compared with all pharmaceutical chemicals tested so far; cited from earlier work
Chain of sigma-1 non-opioid receptor (Q99720 whole entry): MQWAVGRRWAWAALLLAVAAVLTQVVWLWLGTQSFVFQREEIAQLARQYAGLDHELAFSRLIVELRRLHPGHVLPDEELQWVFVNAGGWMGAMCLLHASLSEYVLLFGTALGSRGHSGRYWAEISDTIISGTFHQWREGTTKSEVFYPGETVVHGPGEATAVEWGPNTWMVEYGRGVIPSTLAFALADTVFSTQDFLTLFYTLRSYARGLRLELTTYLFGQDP

For `CCCCCc1cc(O)c2c(c1)OC(C)(C)[C@@H]1CCC(CO)=C[C@@H]21` [11-OH-delta-9-THC], the “Plasma concentration of principal active metabolite relative to Δ9-THC” value ([1]; plasma) is given as “approximately equal concentrations”.
For `CCCCCc1cc(O)c2c(c1)OC(C)(C)[C@@H]1CCC(C)=C[C@@H]21` [dronabinol, (−)-(6aR,10aR)-6,6,9-trimethyl-3-pentyl-6a,7,8,10a-tetrahydro-6H-benzo[c]-chromen-1-ol], the Deaths ([2]; among the 77 patients in the treatment group) is given as 5, the “Average first peak C-reactive protein (CRP) levels, difference (lower in treatment group)” value ([2]; vs control, p-value of 0.07, not statistically significant) is given as 14% and the “Duration of appetite stimulant effect” value ([3]; after administration) is given as ≥ 24 h. The “Time to tolerance to cardiovascular and subjective adverse CNS effects” value ([3]; healthy male volunteers (N=12), 210 mg/day orally in divided doses for 16 days) was ≤ 12 days, the “Persistence of appetite stimulant effect” value ([3]; patients with AIDS, Δ9-THC capsules 2.5 mg/day to 20 mg/day) was “sustained for up to five months” and the Mortality (cytokine storm; animal model of cytokine storm induced ARF and/or ARDS) was “decrease mortality”. The “Prevention of death of animals that received a fatal dose of the biotoxin” value (cytokine storm; animal models) was “prevent the death of one hundred percent of all animals”, the “AUC (0-12), Mean (SD)” value ([4]; BID Dose 2.5 mg) was 2.88 (1.57) ng*hr/mL and the “Cmax, Mean (SD)” value ([4]; BID Dose 2.5 mg) was 1.32 (0.62) ng/mL. For the same compound, the “Median Tmax (range)” value ([4]; BID Dose 2.5 mg) was 1.00 (0.50-4.00) hr, the “AUC (0-12), Mean (SD)” value ([4]; BID Dose 5 mg) was 6.16 (1.85) ng*hr/mL and the “Cmax, Mean (SD)” value ([4]; BID Dose 5 mg) was 2.96 (1.81) ng/mL. For the same compound, the “Median Tmax (range)” value ([4]; BID Dose 5 mg) was 2.50 (0.50-4.00) hr, the “AUC (0-12), Mean (SD)” value ([4]; BID Dose 10 mg) was 15.2 (5.52) ng*hr/mL and the “Cmax, Mean (SD)” value ([4]; BID Dose 10 mg) was 7.88 (4.54) ng/mL. The “Median Tmax (range)” value ([4]; BID Dose 10 mg) was 1.50 (0.50-3.50) hr, the “Time for which low levels of metabolites are detected in urine and feces” value ([1]; following single dose administration) was “more than 5 weeks” and the “Oral dose recovered unchanged in the feces” value ([1]; in vivo, po) was “Less than 5%”. For the same compound, the “Administered dose reaching the systemic circulation” value ([1]; oral dose) was 10-20%, the “Absorbed after oral dose” value ([1]; single oral doses) was 90-95% and the “Initial (alpha) half-life” value ([1]; two-compartment model) was “about 4 hours”. The “Radio-labeled oral dose recovered from the feces” value ([1]; within 72 hours) was “about half”, the “Reported fatality from overdosage” value [5] was “has not had a reported fatality from overdosage” and the “# Survived” value ([6]; 2.5 mg Dronabinol, total 9 in group) was 8. The LOS ([6]; 5 mg Dronabinol, length of hospital stay) was 8.8 and the “# Survived” value ([6]; 5 mg Dronabinol, total 68 in group) was 64.
For `NCCO/N=C(\CCCC(=O)O)c1ccc(C(F)(F)F)cc1` [fluvoxamine acid], the “Share of urinary excretion products” value ([7]; fluvoxamine acid together with its N-acetylated analog) is listed as “about 60%”, the “Inhibition of serotonin uptake” value (serotonin uptake) is listed as “weak effect” and the “Potency relative to the parent compound (less potent)” value (serotonin uptake) is listed as 1-2 orders of magnitude. For the same compound, the Norepinephrine reuptake inhibition (norepinephrine reuptake) was “inactive”.
In the case of `COCCCC/C(=N\OCCO)c1ccc(C(F)(F)F)cc1` [fluvoxamine ethanol], the “Share of urinary excretion products” value ([7]; fluvoxamine ethanol) is listed as “about 10%”.
For `COCCCC/C(=N\OCCN)c1ccc(C(F)(F)F)cc1` [fluvoxamine maleate], the “Time of maximum plasma concentrations at steady state” value [8] is listed as 3 to 8 h.
For `COCCCC/C(=N\OCCN)c1ccc(C(F)(F)F)cc1` [fluvoxamine, 2-[(E)-[5-methoxy-1-[4-(trifluoromethyl)phenyl]pentylidene]amino]oxyethanamine], the “Bound to plasma protein” value [9] is listed as “Approximately 80%”, the “Bound to plasma protein” value ([9]; listed as Fluvoxamine) is listed as 80% and the Reduction of clearance ([10]; elderly patients) is listed as “about 50%”. For the same compound, the “Multiple dose elimination half-life” value ([10]; elderly, 50 mg) was 17.4 h, the “Multiple dose elimination half-life” value ([10]; elderly, 100 mg) was 25.9 h and the “Multiple dose elimination half-life” value ([10]; young subjects, 50 mg) was 13.6 h. The “Multiple dose elimination half-life” value ([10]; young subjects, 100 mg) was 15.6 h, the Decrease in clearance [11] was 30% and the Serotonin reuptake inhibition [12] was “potent serotonin reuptake inhibitor”. The “Affinity for histaminergic receptors” value (histaminergic receptors) was “no significant affinity”, the “Affinity for alpha adrenergic receptors” value [13] was “no significant affinity” and the “Affinity for beta adrenergic receptors” value [14] was “no significant affinity”. The “Affinity for muscarinic receptors” value (muscarinic receptors) was “no significant affinity”, the “Affinity for dopaminergic receptors” value (dopaminergic receptors) was “no significant affinity” and the “Agonistic sigma-1 binding affinity” value [15] was “strongest agonistic sigma-1 binding affinity”. For the same compound, the “Mean plasma half-life at steady state” value ([7]; human, in vivo, po) was 15.6 h and the “Excreted in urine unchanged” value ([7]; in vivo) was “Approximately 2%”.
